The target of one test is T1, human Cot/Tpl2 kinase (Homo sapiens, UniProt P41279).
T1 construct: human Cot/Tpl2 kinase construct encoding residues 30-398; 6His (N); made in house; host or cells: Sf9 insect cells, baculovirus system (BD Biosciences)
T1 sequence (P41279 30-398): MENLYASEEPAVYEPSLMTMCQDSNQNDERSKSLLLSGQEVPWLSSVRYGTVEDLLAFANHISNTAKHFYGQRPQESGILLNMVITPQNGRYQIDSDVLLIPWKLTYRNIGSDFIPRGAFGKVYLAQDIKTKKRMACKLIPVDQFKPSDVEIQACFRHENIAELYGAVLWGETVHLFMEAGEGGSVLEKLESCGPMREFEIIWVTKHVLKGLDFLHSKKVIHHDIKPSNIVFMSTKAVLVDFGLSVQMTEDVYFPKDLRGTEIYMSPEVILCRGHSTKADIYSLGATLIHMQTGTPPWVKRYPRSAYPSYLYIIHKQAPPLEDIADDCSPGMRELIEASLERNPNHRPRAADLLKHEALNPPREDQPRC
Nature of the test: Tpl2/Cot kinase assay: GST-MEK1 phosphorylation detected by ELISA (DELFIA Eu). Type of test: biochemical. The following applies: Tpl2/Cot kinase, GST-MEK1 substrate, 50 uM ATP. In outline: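 Substrate phosphorylation (GST-MEK1 Ser217/221) quantified by DELFIA europium ELISA, yielding IC50 values. Reaction: 1 h at 30° C, pH 7.2 MOPS buffer, 50 uM ATP, 35 nM GST-MEK1, 0.4 nM monomeric His-Tpl2 purified from Sf9 cells, compounds at 1% final DMSO; stopped with EDTA.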
In general terms: An ELISA detects its analyte on a solid surface through an enzyme-linked reagent.
Turning to `CCN1CCCC(Nc2cc(Cl)c3ncc(C#N)c(Nc4ccc(F)c(Cl)c4)c3c2)C1` (centres unmarked) [Example 868], the IC50 (usually the point on the concentration scale where inhibition reaches its midpoint) stood at 1190 nM.

The compound `N#Cc1cnc2c(Cl)cc(NC3CCN(Cc4cccnc4)CC3)cc2c1Nc1ccc(F)c(Cl)c1` [Example 869] gave an IC50 of 820 nM.

`CCN1CCCCC1CNc1cc(Cl)c2ncc(C#N)c(Nc3ccc(F)c(Cl)c3)c2c1` (centres unmarked) [Example 870] came in with an IC50 of 1970 nM.

Regarding `CC(=O)N1CCC(Nc2cc(Cl)c3ncc(C#N)c(Nc4ccc(F)c(Cl)c4)c3c2)C1` (centres unmarked) [Example 871], the IC50 was 150 nM.

With `CC(=O)N1CCCC(Nc2cc(Cl)c3ncc(C#N)c(Nc4ccc(F)c(Cl)c4)c3c2)C1` (centres unmarked) [Example 872], half-maximal inhibition (IC50) required 96 nM.

On to `CC(=O)N1CCC(Nc2cc(Cl)c3ncc(C#N)c(Nc4ccc(F)c(Cl)c4)c3c2)CC1` [Example 873], for which the midpoint of inhibition, the IC50, lay at 660 nM.

As to `CC(=O)N1CCCC(CNc2cc(Cl)c3ncc(C#N)c(Nc4ccc(F)c(Cl)c4)c3c2)C1` (centres unmarked) [Example 874], 610 nM corresponded to half-maximal inhibition (IC50).

`CC(=O)N1CCCCC1CNc1cc(Cl)c2ncc(C#N)c(Nc3ccc(F)c(Cl)c3)c2c1` (centres unmarked) [Example 875] gave an IC50 of 620 nM.

`N#Cc1cnc2c(Cl)cc(NCc3cn(CC(=O)NC4CC4)nn3)cc2c1Nc1ccc(F)c(Cl)c1` [Example 876] yielded an IC50 of 1.3 nM.

For the compound `CC(C)N1CCCC1Cn1cc(CNc2cc(Br)c3ncc(C#N)c(Nc4ccc(F)c(Cl)c4)c3c2)nn1` (centres unmarked) [Example 878], the IC50 worked out at 110 nM.

The compound `N#Cc1cnc2c(Cl)cc(NCc3cn(Cc4cncnc4)nn3)cc2c1Nc1ccc(F)c(Cl)c1` [Example 879] displayed an IC50 of 1.1 nM.

Take `N#Cc1cnc2c(Br)cc(NCc3cn(Cc4cncnc4)nn3)cc2c1Nc1ccc(F)c(Cl)c1` [Example 880]: the IC50 was 2.5 nM.

`N#Cc1cnc2c(Cl)cc(NCc3cn(Cc4cccc(C(F)(F)F)n4)nn3)cc2c1Nc1ccc(F)c(Cl)c1` [Example 882]: the IC50 was determined as 270 nM.

Take `N#Cc1cnc2c(Cl)cc(NCc3cn(Cc4ccnc(C(F)(F)F)c4)nn3)cc2c1Nc1ccc(F)c(Cl)c1` [Example 883]: the IC50 worked out at 80 nM.

Turning to `CCOC(=O)C1CC1CNc1cc(Cl)c2ncc(C#N)c(Nc3ccc(F)c(Cl)c3)c2c1` (centres unmarked) [Example 884], half-maximal inhibition (IC50) required 660 nM.

`N#Cc1cnc2c(Cl)cc(NCC(=O)N3CCCCCC3)cc2c1Nc1ccc(F)c(Cl)c1` [Example 885] came in with an IC50 of 390 nM.

Regarding `N#Cc1cnc2c(Cl)cc(NCC3CC3C(=O)O)cc2c1Nc1ccc(F)c(Cl)c1` (centres unmarked) [Example 886], the half-inhibitory concentration (IC50) was determined as 220 nM.

Take `CC(C)(C)OC(=O)N1CCC[C@@H]1Cn1cc(CNc2cc(Cl)c3ncc(C#N)c(Nc4ccc(F)c(Cl)c4)c3c2)nn1` [Example 887]: inhibition was half-maximal at 160 nM (IC50).

`CC(C)(C)OC(=O)N1CCC[C@H]1Cn1cc(CNc2cc(Cl)c3ncc(C#N)c(Nc4ccc(F)c(Cl)c4)c3c2)nn1` [Example 888]: the IC50 came to 200 nM.

The compound `N#Cc1cnc2c(Cl)cc(NCc3cn(C[C@H]4CCCN4)nn3)cc2c1Nc1ccc(F)c(Cl)c1` [Example 889] came in with an IC50 of 8.4 nM.

On to `N#Cc1cnc2c(Cl)cc(NCc3cn(C[C@@H]4CCCN4)nn3)cc2c1Nc1ccc(F)c(Cl)c1` [Example 890], for which it took 7.6 nM to reach half-maximal inhibition (IC50).

Take `CN1CCC[C@@H]1Cn1cc(CNc2cc(Cl)c3ncc(C#N)c(Nc4ccc(F)c(Cl)c4)c3c2)nn1` [Example 891]: 33 nM corresponded to half-maximal inhibition (IC50).

`CCN1CCC[C@@H]1Cn1cc(CNc2cc(Cl)c3ncc(C#N)c(Nc4ccc(F)c(Cl)c4)c3c2)nn1` [Example 892] registered a half-inhibitory concentration (IC50) of 30 nM.

In turn, `CC(C)N1CCC[C@@H]1Cn1cc(CNc2cc(Cl)c3ncc(C#N)c(Nc4ccc(F)c(Cl)c4)c3c2)nn1` [Example 893] gave an IC50 of 46 nM.

Compound `CN1CCC[C@H]1Cn1cc(CNc2cc(Cl)c3ncc(C#N)c(Nc4ccc(F)c(Cl)c4)c3c2)nn1` [Example 894] returned an IC50 of 1.8 nM.

Compound `CCN1CCC[C@H]1Cn1cc(CNc2cc(Cl)c3ncc(C#N)c(Nc4ccc(F)c(Cl)c4)c3c2)nn1` [Example 895] displayed an IC50 of 10 nM.

As to `CC(C)N1CCC[C@H]1Cn1cc(CNc2cc(Cl)c3ncc(C#N)c(Nc4ccc(F)c(Cl)c4)c3c2)nn1` [Example 896], the IC50 was determined as 34 nM.

`CN(C)C(=O)N1CCC[C@@H]1Cn1cc(CNc2cc(Cl)c3ncc(C#N)c(Nc4ccc(F)c(Cl)c4)c3c2)nn1` [Example 897] gave an IC50 of 110 nM.

As to `CC(=O)N1CCC[C@@H]1Cn1cc(CNc2cc(Cl)c3ncc(C#N)c(Nc4ccc(F)c(Cl)c4)c3c2)nn1` [Example 898], the IC50 was 0.2 nM.

Compound `CCNC(=O)N1CCC[C@@H]1Cn1cc(CNc2cc(Cl)c3ncc(C#N)c(Nc4ccc(F)c(Cl)c4)c3c2)nn1` [Example 899] returned an IC50 of 0.6 nM.

Compound `CN(C)C(=O)N1CCC[C@H]1Cn1cc(CNc2cc(Cl)c3ncc(C#N)c(Nc4ccc(F)c(Cl)c4)c3c2)nn1` [Example 900] showed an IC50 of 0.5 nM.

Compound `CC(=O)N1CCC[C@H]1Cn1cc(CNc2cc(Cl)c3ncc(C#N)c(Nc4ccc(F)c(Cl)c4)c3c2)nn1` [Example 901] came in with an IC50 of 1 nM.

As to `CCNC(=O)N1CCC[C@H]1Cn1cc(CNc2cc(Cl)c3ncc(C#N)c(Nc4ccc(F)c(Cl)c4)c3c2)nn1` [Example 902], inhibition was half-maximal at 0.5 nM (IC50).

Compound `N#Cc1cnc2c(Cl)cc(NCC3CCCN(C(=O)CN4CCCCCC4)C3)cc2c1Nc1ccc(F)c(Cl)c1` (centres unmarked) [Example 903] had an IC50 of 620 nM.

`COCCNCC(=O)N1CCCC(CNc2cc(Cl)c3ncc(C#N)c(Nc4ccc(F)c(Cl)c4)c3c2)C1` (centres unmarked) [Example 904] came in with an IC50 of 260 nM.

Take `CS(=O)(=O)NCCCn1cc(CNc2cc(Cl)c3ncc(C#N)c(Nc4ccc(F)c(Cl)c4)c3c2)nn1` [Example 905]: the IC50 amounted to 2.8 nM.

Consider `N#Cc1cnc2c(Cl)cc(NCc3cn(CCCNS(=O)(=O)C(F)(F)F)nn3)cc2c1Nc1ccc(F)c(Cl)c1` [Example 906], for which 1.3 nM corresponded to half-maximal inhibition (IC50).

Compound `CC(C)S(=O)(=O)NCCCn1cc(CNc2cc(Cl)c3ncc(C#N)c(Nc4ccc(F)c(Cl)c4)c3c2)nn1` [Example 907] registered an IC50 of 4.5 nM.

As to `CC(C)NC(=O)NCCCn1cc(CNc2cc(Cl)c3ncc(C#N)c(Nc4ccc(F)c(Cl)c4)c3c2)nn1` [Example 908], the IC50 came out at 1 nM.

`CNC(=O)NCCCn1cc(CNc2cc(Cl)c3ncc(C#N)c(Nc4ccc(F)c(Cl)c4)c3c2)nn1` [Example 909] had an IC50 of 1 nM.

For `CC(=O)NCCCn1cc(CNc2cc(Cl)c3ncc(C#N)c(Nc4ccc(F)c(Cl)c4)c3c2)nn1` [Example 910], the IC50 turned out to be 0.7 nM.

The compound `CC(C)C(=O)NCCCn1cc(CNc2cc(Cl)c3ncc(C#N)c(Nc4ccc(F)c(Cl)c4)c3c2)nn1` [Example 911] had an IC50 of 2.4 nM.

`N#Cc1cnc2c(Cl)cc(NCc3cn(CCCNC(=O)C4CC4)nn3)cc2c1Nc1ccc(F)c(Cl)c1` [Example 912] came in with an IC50 of 1.9 nM.

In turn, `CC(C)CN(CCCn1cc(CNc2cc(Cl)c3ncc(C#N)c(Nc4ccc(F)c(Cl)c4)c3c2)nn1)CC(C)C` [Example 913] gave an IC50 of 45 nM.

`N#Cc1cnc2c(Cl)cc(NCc3cn(CCCNC4CCCC4)nn3)cc2c1Nc1ccc(F)c(Cl)c1` [Example 914] registered an IC50 of 52 nM.

For the compound `N#Cc1cnc2c(Cl)cc(N(C=O)Cc3cn(CCCNC=O)nn3)cc2c1Nc1ccc(F)c(Cl)c1` [Example 915], the IC50 turned out to be 170 nM.

Consider `CS(=O)(=O)NCCCn1cc(CN(C=O)c2cc(Cl)c3ncc(C#N)c(Nc4ccc(F)c(Cl)c4)c3c2)nn1` [Example 916], for which inhibition was half-maximal at 830 nM (IC50).

In turn, `COCn1cc(CNc2cc(Br)c3ncc(C#N)c(Nc4ccc(F)c(Cl)c4)c3c2)nn1` [Example 917] had an IC50 of 76 nM.

`N#Cc1cnc2c(Cl)cc(NCc3cn(CCc4ccncc4)nn3)cc2c1Nc1ccc(F)c(Cl)c1` [Example 918] yielded a half-maximal inhibitory concentration (IC50) of 0.9 nM.

The compound `N#Cc1cnc2c(Br)cc(NCc3cn(CCc4ccncc4)nn3)cc2c1Nc1ccc(F)c(Cl)c1` [Example 919] yielded a half-maximal inhibitory concentration (IC50) of 1.3 nM.

In turn, `CN(C)CCNCC(=O)N1CCCC(CNc2cc(Cl)c3ncc(C#N)c(Nc4ccc(F)c(Cl)c4)c3c2)C1` (centres unmarked) [Example 920] showed an IC50 of 860 nM.

The same test, now with this note: Tpl2/Cot kinase, GST-MEK1 substrate, 50 uM ATP, 1 h at 30° C.; Table 2.
For the compound `N#Cc1cnc2c(Cl)cc(NCC3CCCN(C(=O)CNCc4cccnc4)C3)cc2c1Nc1ccc(F)c(Cl)c1` (centres unmarked) [Example 921], the IC50 worked out at 540 nM.

Turning to `N#Cc1cnc2c(Cl)cc(NCC3CCCN(C(=O)CNCc4ccccn4)C3)cc2c1Nc1ccc(F)c(Cl)c1` (centres unmarked) [Example 922], the midpoint of inhibition, the IC50, lay at 1690 nM.

For the compound `N#Cc1cnc2c(Cl)cc(NCC3CCCN(C(=O)CNc4cccnc4)C3)cc2c1Nc1ccc(F)c(Cl)c1` (centres unmarked) [Example 923], inhibition was half-maximal at 560 nM (IC50).

Compound `N#Cc1cnc2c(Cl)cc(NCC3CCCN(C(=O)CCl)C3)cc2c1Nc1ccc(F)c(Cl)c1` (centres unmarked) [Example 924] had a half-inhibitory concentration (IC50) of 1320 nM.

In turn, `CC(C)(C)OC(=O)N1CCC(n2cc(CNc3cc(Cl)c4ncc(C#N)c(Nc5ccc(F)c(Cl)c5)c4c3)nn2)CC1` [Example 925] displayed an IC50 of 73 nM.

As for `CN(C)C(=O)N1CCC(n2cc(CNc3cc(Cl)c4ncc(C#N)c(Nc5ccc(F)c(Cl)c5)c4c3)nn2)CC1` [Example 929], it took 7 nM to reach half-maximal inhibition (IC50).

Compound `CC(=O)N1CCC(n2cc(CNc3cc(Cl)c4ncc(C#N)c(Nc5ccc(F)c(Cl)c5)c4c3)nn2)CC1` [Example 930] displayed an IC50 of 3.3 nM.

Consider `CCNC(=O)N1CCC(n2cc(CNc3cc(Cl)c4ncc(C#N)c(Nc5ccc(F)c(Cl)c5)c4c3)nn2)CC1` [Example 931], for which half-maximal inhibition (IC50) was put at 18.9 nM.

In turn, `N#Cc1cnc2c(Cl)cc(NC[C@H]3C[C@H](O)CO3)cc2c1Nc1ccc(F)c(Cl)c1` [Example 932] returned an IC50 of 410 nM.

Turning to `C[C@H](CNc1ccccn1)Nc1cc(Cl)c2ncc(C#N)c(Nc3ccc(F)c(Cl)c3)c2c1` [Example 933], the IC50 was 1990 nM.

On to `N#Cc1cnc2c(Cl)cc(NCc3cn(C4CCOC4=O)nn3)cc2c1Nc1ccc(F)c(Cl)c1` (centres unmarked) [Example 934], for which the IC50 was determined as 18 nM.

The record behind these values is US20060264460A1 (Wyeth, priority 2005, published 2006).
